In PMC9735965, “Recovery of Gallium-68 and Zinc from HNO3-Based Solution by Liquid–Liquid Extraction with Arylamino Phosphonates” (Molecules, 2022):

assay: Aqueous solubility of extractants by qNMR; assay type: physicochemical; settings: water, thermodynamic from solid; experimentally determined; in D2O by qNMR
Method: A 1 mL volumetric flask was charged with 10–15 mg of the extractant and 1 mL of D2O. The resulting suspension was sonicated for 30 min and the content was centrifuged, filtered through a 0.45 µm syringe filter, and transferred into an NMR tube. A sealed capillary containing an external calibrant (acetanilide for ^1H qNMR and triphenylphosphine for ^31P qNMR) was inserted into the NMR tube and the solubility of extractants 1–9 was determined from their ^1H or ^31P NMR spectra using the formula: Cx = (Ix/Ical) × (Ncal/Nx) × Ccal, where I, N, and C are the integral area, number of nuclei, and the concentration of the extractant (x) and the calibrant (cal), respectively.

Row | SMILES | solubility at 30 min [µM]
1 | CCCCCCCCOP(=O)(O)C(Nc1ccccc1)c1ccccc1 (stereo not drawn) [Extractant 1, reference compound] | 220
2 | COP(=O)(O)C(Nc1ccc(C(C)(C)C)cc1)c1ccc(C(C)(C)C)cc1 (stereo not drawn) [Extractant 2] | 100
3 | CCCCCCCCOP(=O)(O)C(Nc1ccc(OC)cc1)c1cccs1 (stereo not drawn) [Extractant 3] | 250
4 | CCCCCCCCOP(=O)(O)C(Nc1ccc(C(F)(F)F)cc1)c1ccc(C(C)(C)C)cc1 (stereo not drawn) [Extractant 4] | 80
5 | CCCCCCCCOP(=O)(O)C(Nc1ccc(OC)cc1)c1ccc(C(F)(F)F)cc1 (stereo not drawn) [Extractant 5] | 40
6 | COP(=O)(O)C(Nc1ccc(C(F)(F)F)cc1)c1cc(C(F)(F)F)cc(C(F)(F)F)c1 (stereo not drawn) [Extractant 6] | 2600
7 | CCCCCCCCOP(=O)(O)C(Nc1cc(C(F)(F)F)cc(C(F)(F)F)c1)c1ccc(C(C)(C)C)cc1 (stereo not drawn) [Extractant 7] | 80
8 | COCCOCCOP(=O)(O)C(Nc1cc(C(F)(F)F)cc(C(F)(F)F)c1)c1ccc(C(F)(F)F)cc1 (stereo not drawn) [Extractant 8] | 1600
9 | COCCOCCOP(=O)(O)C(Nc1cc(C(F)(F)F)cc(C(F)(F)F)c1)c1cc(C(F)(F)F)cc(C(F)(F)F)c1 (stereo not drawn) [Extractant 9] | 1730
